Experimental data taken from ChEMBL document CHEMBL5375987, “Structural Fusion of Natural and Synthetic Ligand Features Boosts RXR Agonist Potency” (J Med Chem, 2023).
≈ marks a conversion by molar mass, not a printed value. One block for each compound: values may come before it.

What was measured:
[1] = molecular target: T1, Retinoic acid receptor RXR-beta (Homo sapiens, UniProt P28702); experiment: Agonist activity at full length human RXR beta expressed in HEK293T cells measured after 16 hrs by Dual-glo luciferase assay; type: cell-based
T1 sequence (P28702 whole entry): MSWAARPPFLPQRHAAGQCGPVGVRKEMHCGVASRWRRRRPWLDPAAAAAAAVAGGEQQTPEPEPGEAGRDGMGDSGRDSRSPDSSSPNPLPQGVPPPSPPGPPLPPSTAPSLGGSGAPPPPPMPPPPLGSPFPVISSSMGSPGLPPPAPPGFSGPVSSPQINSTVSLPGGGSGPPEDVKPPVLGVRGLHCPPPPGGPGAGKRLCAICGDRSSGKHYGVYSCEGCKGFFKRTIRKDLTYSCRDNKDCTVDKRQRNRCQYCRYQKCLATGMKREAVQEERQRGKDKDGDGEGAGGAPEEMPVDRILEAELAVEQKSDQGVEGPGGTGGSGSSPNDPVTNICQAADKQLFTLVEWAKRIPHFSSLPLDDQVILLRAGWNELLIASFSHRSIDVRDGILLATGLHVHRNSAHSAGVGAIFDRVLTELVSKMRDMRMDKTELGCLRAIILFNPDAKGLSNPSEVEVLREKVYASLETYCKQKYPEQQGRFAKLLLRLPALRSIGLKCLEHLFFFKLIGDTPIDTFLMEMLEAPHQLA

[2] = molecular target: T2, Retinoic acid receptor RXR-alpha (Homo sapiens, UniProt P19793)
T2 sequence (P19793 whole entry): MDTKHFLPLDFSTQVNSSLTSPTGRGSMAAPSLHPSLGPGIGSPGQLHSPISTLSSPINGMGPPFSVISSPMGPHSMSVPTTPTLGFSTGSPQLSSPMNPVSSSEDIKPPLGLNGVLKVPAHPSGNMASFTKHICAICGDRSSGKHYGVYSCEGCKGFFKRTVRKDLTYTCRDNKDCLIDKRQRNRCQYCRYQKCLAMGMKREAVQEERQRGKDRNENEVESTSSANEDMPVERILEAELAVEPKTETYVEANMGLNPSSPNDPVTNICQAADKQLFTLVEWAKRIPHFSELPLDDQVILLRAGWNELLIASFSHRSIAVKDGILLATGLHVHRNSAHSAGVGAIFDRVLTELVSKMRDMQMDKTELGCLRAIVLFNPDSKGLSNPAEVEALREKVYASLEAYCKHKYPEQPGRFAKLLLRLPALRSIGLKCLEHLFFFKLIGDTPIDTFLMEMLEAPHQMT
Description: Agonist activity at full length human RXR alpha expressed in HEK293T cells measured after 16 hrs by Dual-glo luciferase assay

[3] = molecular target: T3, Retinoic acid receptor RXR-gamma (Homo sapiens, UniProt P48443); experiment: Agonist activity at full length human RXR gamma expressed in HEK293T cells measured after 16 hrs by Dual-glo luciferase assay; type: cell-based
T3 sequence (P48443 whole entry): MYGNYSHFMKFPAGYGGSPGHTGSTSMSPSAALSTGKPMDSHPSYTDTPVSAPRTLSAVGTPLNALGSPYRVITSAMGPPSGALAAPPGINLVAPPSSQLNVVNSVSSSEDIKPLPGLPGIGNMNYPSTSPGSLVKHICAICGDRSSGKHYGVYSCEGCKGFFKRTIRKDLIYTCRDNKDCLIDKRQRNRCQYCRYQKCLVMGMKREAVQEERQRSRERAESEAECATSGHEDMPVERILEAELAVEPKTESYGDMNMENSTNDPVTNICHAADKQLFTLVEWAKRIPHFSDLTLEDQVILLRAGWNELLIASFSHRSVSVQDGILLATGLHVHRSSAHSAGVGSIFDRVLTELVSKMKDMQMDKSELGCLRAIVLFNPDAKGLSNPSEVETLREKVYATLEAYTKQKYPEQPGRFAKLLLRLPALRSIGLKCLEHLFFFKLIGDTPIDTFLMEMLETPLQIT

COS-7 = experiment: Cytotoxicity against green monkey COS-7 cells assessed as inhibition of cell growth at upto 30 uM measured after 24 hrs CCK-8 method; type: toxicity, cell-based; details: chlorocebus aethiops, cos-7, 24 h
[4] = Microsomal stability in Sprague-Dawley rat liver microsomes assessed as compound remaining at 10 uM measured auto 60 mins in presence of NADPH by HPLC-UV method; type: ADME, Microsome; details: read-out: Stability
[5] = Microsomal stability in Sprague-Dawley rat liver microsomes assessed as half life at 10 uM in presence of NADPH by HPLC-UV method; type: ADME, Microsome
[6] = Thermodynamic aqueous solubility of compound at 24 degreeC measured after 24 hrs by SpectraMax M5e plate reader analysis; type: physicochemical; details: aqueous medium, read-out: Therm_solubility
[7] = molecular target: T4, Nuclear receptor subfamily 1 group I member 3 (Homo sapiens, UniProt Q14994); experiment: Agonist activity at NR1I3 (unknown origin) at 1 uM
T4 sequence (Q14994 whole entry): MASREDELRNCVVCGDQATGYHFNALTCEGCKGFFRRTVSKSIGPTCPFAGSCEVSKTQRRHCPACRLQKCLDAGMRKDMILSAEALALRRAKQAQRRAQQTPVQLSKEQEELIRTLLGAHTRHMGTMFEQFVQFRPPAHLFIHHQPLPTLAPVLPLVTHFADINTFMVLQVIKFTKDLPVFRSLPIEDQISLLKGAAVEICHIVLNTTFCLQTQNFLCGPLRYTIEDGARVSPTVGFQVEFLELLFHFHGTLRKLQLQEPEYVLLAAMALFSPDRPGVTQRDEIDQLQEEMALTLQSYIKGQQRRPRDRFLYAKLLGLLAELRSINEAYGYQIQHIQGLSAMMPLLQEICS

[8] = molecular target: T4, Nuclear receptor subfamily 1 group I member 3; experiment: Inverse agonist activity at NR1I3 (unknown origin) at 1 uM
[9] = molecular target: T4, Nuclear receptor subfamily 1 group I member 3; experiment: Antagonist activity at NR1I3 (unknown origin) at 1 uM

EC50 [1]: 7.4 µM
Structure (SMILES): C/C(=C\C(=O)O)c1nc(-c2ccccc2)c(-c2ccccc2)o1

EC50 [1]: 13.1 µM | EC50 [2]: 13 µM
Structure (SMILES): O=C(O)/C=C/c1nc(-c2ccccc2)c(-c2ccccc2)o1

EC50 [3]: 0.057 µM
Structure (SMILES): O=C(O)/C=C/c1nc(-c2ccccc2)c(-c2cc(C(F)(F)F)cc(C(F)(F)F)c2)o1

Continued, compound first:

Structure (SMILES): C/C(C(=O)O)=C(/C)c1nc(-c2ccccc2)c(-c2ccccc2)o1
EC50 [1]: 1.9 µM

Structure (SMILES): O=C(O)[C@@H]1C[C@H]1c1nc(-c2ccccc2)c(-c2cc(C(F)(F)F)cc(C(F)(F)F)c2)o1 (racemic)
Activity (COS-7): Non-Toxic | remaining at 1 h, 10 µM [4]: 79% | half-life at 10 µM [5]: > 2 h | solubility thermodynamic at 24 h [6]: 18.3 µM (≈ 8.08 µg/mL) | Activity [7]: Not Active | Activity [8]: Not Active | Activity [9]: Not Active

Structure (SMILES): OC[C@@H]1C[C@H]1c1nc(-c2ccccc2)c(-c2cc(C(F)(F)F)cc(C(F)(F)F)c2)o1 (racemic)
solubility thermodynamic at 24 h [6]: 5.8 µM (≈ 2.48 µg/mL)
